The record followed here is patent US20240165247A1, “NEW PEPTIDE CONJUGATES” (JIANGYIN USUN PHARMACEUTICAL CO., LTD., priority 2021, published 2024).

This experiment deals with dental ulcer of the patient. The experiment is described as follows: Dental treatment: solution sprayed onto dental ulcer of a patient, pain relief. It is filed as in vivo, human. Conditions: 1 mg/mL solution in normal saline. The procedure:
A 1 mg/mL solution of the title compound of Example 1 was prepared in normal saline.
The resultant solution was sprayed using a standard spray device onto the dental ulcer of the patient. Pain relief occurred within 1 minute. The duration of pain relief was about 3 hours.

With “Ala-Lys-Pro-Ser-Tyr-Hyp-Thr-Tyr-Hyp-Lys-Procaine [Example 1]”, the “Duration of pain relief” value is recorded as “about 3 hours” and the “Time to occurrence of pain relief” value is ≤ 1 min.
